Experimental data from ChEMBL document CHEMBL1142877, “Synthesis and biological evaluation of 4-methylideneisoxazolidin-5-ones--a new class of highly cytotoxic alpha-methylidene-gamma-lactones” (Eur J Med Chem, 2007).
Values after ≈ are worked out from the molar mass of the structure shown. Active and inactive are the calls of the source. No cut-off for these calls is given here.

How the values were obtained:
Candida albicans = assay: Antimicrobial activity against Candida albicans ATCC 10231 at 37.5 ug/mL by MTT reduction assay; format: functional, organism-based
Enterococcus faecalis = assay: Antimicrobial activity against Enterococcus faecalis ATCC 29212; format: functional
Pseudomonas aeruginosa = assay: Antimicrobial activity against Pseudomonas aeruginosa NCTC 6749; format: functional
HL-60 = assay: Cytotoxicity against HL60 cells after 72 hrs by dye exclusion assay; format: functional, cell-based; settings: Homo sapiens, HL-60, 72 h
[1] = test system: Staphylococcus epidermidis; assay: Growth inhibition of Staphylococcus epidermidis ATCC 12228 at 150 ug/mL; format: functional, organism-based
Escherichia coli [2] = assay: Antimicrobial activity against Escherichia coli NCTC 8196; format: functional
Staphylococcus aureus [3] = assay: Growth inhibition of Staphylococcus aureus ATCC 29213 at 150 ug/mL; format: functional, organism-based
Staphylococcus aureus [4] = assay: Growth inhibition of Staphylococcus aureus ATCC 29213 at 300 ug/mL; format: functional, organism-based
[5] = test system: Staphylococcus epidermidis; assay: Growth inhibition of Staphylococcus epidermidis ATCC 12228 at 300 ug/mL; format: functional, organism-based
[6] = Cytotoxicity against adriamycin-resistant HL60/ADR cells expressing MRP1 after 72 hrs by dye exclusion assay; format: functional, cell-based; settings: Homo sapiens
Escherichia coli [7] = assay: Antimicrobial activity against Escherichia coli NCTC 8196 at 300 ug/mL; format: functional, organism-based

MIC (Enterococcus faecalis) [µg/mL] | MIC (Pseudomonas aeruginosa) [µg/mL] | MIC (Escherichia coli [2]) [µg/mL] | Compound | Activity (Candida albicans) | IC50 (HL-60) [µM] | Activity [1] | Activity (Staphylococcus aureus [3]) | Activity (Staphylococcus aureus [4]) | Activity [5] | IC50 [6] [µM] | Activity (Escherichia coli [7])
≥ 300 | 300 (≈ 1640 µM) | 75 (≈ 409 µM) | C=C1C(=O)ON(C)C1C(C)CCC (stereo not given) | Active | 4.1 | Active | Active | Active | Active | 2.5 | 
 |  |  | COc1cccc2c1C(=O)c1c(O)c3c(c(O)c1C2=O)C[C@@](O)(C(=O)CO)C[C@@H]3O[C@H]1C[C@H](N)[C@H](O)[C@H](C)O1 [DOXORUBICIN] |  | 0.013 |  |  |  |  |  | 
≥ 300 | 300 (≈ 1480 µM) |  | C=C1C(=O)ON(C)C1c1ccc(C)cc1 (stereo not given) | Active |  | Active | Active | Active | Active | 6 | inactive
